Data published in publication PMC13198257, “An aerosolized dual-action autotaxin inhibitor-PPARγ agonist for the treatment of pulmonary fibrosis” (Cell Reports Medicine, 2026).

System: LPA levels
Experiment: LPA levels in BALF and plasma of BLM mice after inhaled EL244 (MS/MS)
Format: in vivo
Protocol: Plasma (50μL), BALF (300 μL) or homogenized lung tissue (10–50 mg) were mixed with ice-cold PBS spiked with the internal standard mixture (LPA-d9, Cayman) in a glass tube (total final volume 1mL). 2 mL of ice-cold chloroform and 1 mL of methanol was added in each sample, following by vortexing for 1 min and then centrifugation at 4°C for 5 min at 4000 g. The lower transparent organic phase (chloroform phase-contains the neutral lipids) was collected in a glass tube. The remaining aqueous phase (upper phase) was left on ice for 10 min and acidified (pH 3–4) with Formic Acid 10% in water. Then 1.5 mL chloroform was added followed by thorough mixing for 1 min and centrifugation at 4°C for 5 min at 2000 g. The lower organic phase was collected and neutralized to pH 6–7. The neutralized organic phase from the acid extraction were evaporated to dryness. After evaporation we redissolve in water/methanol (1:9) with 0.1% formic acid and run in the mass spec. All MS quantitation lipid standards were purchased from Cayman unless otherwise mentioned. All LPA species analyzed in this study were quantified using the multiple reaction monitoring (MRM) scanning method on an Waters-QQQ mass spectrometer. All data were acquired and analyzed using the Waters data analysis software. The LC separation was achieved using a Gemini 5U C18 column (Phenomenex, 5 μm, 50 × 4.6 mm) coupled to a Gemini guard column (Phenomenex, 4 × 3 mm). The LC solvents were as follows: buffer A, 85% CAN, 5% MeOH +0.1% formic acid +10% 10 mM ammonium formate buffer pH5; buffer B, 95:5 (v/v) ACN/MeOH +0.1% formic acid. A typical LC-run was 35 min, with the following solvent run sequence post injection: 0.35 mL/min 5% B for 5 min, linear gradient of B from 0 to 95% over 25 min, and re-equilibration with 0.5 mL/min of 5% B for 5 min. […] All the endogenous lipid species were quantified by measuring the area under the curve in comparison to the respective internal standard, and then normalized to the total protein content of the […] tissue. The following table presents the MRM used for LPA quantification.

In the case of `O=C1NC(=O)C(Cc2ccc(OCCC3CCN(C(=O)OCc4cc(Cl)cc(Cl)c4)CC3)cc2)S1` (stereo not drawn) [EL244, 3,5-dichlorobenzyl 4-(2-(4-((2,4-dioxothiazolidin-5-yl)methyl)phenoxy)ethyl)piperidine-1-carboxylate], the “LPA species in BALF” value is reported as “All LPA species, except for 18:0, were found to be reduced in the BALF”, the “Plasma LPA levels” value is reported as “no modulation of plasma LPA levels was detected” and the “Total LPA content in BALFs” value is reported as “found reduced”.
